According to article PMC7545214, “Structural basis for energy transfer in a huge diatom PSI-FCPI supercomplex” (Nature Communications, 2020):

Legend:
[1] = target: T1, PSI core of the PSI-FCPI supercomplex (Chaetoceros neogracilis, UniProt A0A6J4B0E7+A0A6J4B109); assay: cryo-EM structure, […] Å; assay type: binding; details: two molecules bound to PsaA/B/R
T1 construct: gene psaA; native purification from thylakoids with DDM; PsaS modelled as polyalanine; with Photosystem I iron-sulfur center; Photosystem I reaction center subunit II; Photosystem I reaction center subunit IV; Photosystem I reaction center subunit III; Photosystem I reaction center subunit VIII; Photosystem I reaction center subunit IX; Photosystem I reaction center subunit XI; Photosystem I reaction center subunit XII; Photosystem I subunit PsaR; Photosystem I subunit PsaS
T1 sequence (A0A6J4B0E7 1-733, one chain of several): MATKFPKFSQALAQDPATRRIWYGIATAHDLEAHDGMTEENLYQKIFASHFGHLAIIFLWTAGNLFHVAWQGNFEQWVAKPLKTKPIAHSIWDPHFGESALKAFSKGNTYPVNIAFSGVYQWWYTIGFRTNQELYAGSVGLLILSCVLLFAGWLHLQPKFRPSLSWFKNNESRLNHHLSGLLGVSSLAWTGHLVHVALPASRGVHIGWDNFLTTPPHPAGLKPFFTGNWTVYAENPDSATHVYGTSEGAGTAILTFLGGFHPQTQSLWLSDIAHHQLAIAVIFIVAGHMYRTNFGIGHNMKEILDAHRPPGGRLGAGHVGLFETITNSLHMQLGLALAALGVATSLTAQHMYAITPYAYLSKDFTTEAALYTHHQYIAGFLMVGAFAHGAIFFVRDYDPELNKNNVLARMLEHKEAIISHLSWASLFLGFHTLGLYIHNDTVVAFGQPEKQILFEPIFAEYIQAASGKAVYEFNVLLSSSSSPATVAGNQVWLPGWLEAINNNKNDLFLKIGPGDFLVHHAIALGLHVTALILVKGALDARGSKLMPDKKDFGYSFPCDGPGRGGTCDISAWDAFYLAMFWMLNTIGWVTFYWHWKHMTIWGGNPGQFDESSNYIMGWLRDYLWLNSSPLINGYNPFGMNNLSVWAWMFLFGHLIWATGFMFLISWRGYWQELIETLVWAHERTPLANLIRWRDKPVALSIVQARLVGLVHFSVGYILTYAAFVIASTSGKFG

[2] = target: T2, PsaR (Chaetoceros neogracilis, UniProt A0A6J4B118); assay: cryo-EM structure, […] Å; assay type: binding; details: one molecule
T2 construct: gene psa28; native, within the PSI-FCPI supercomplex; 89 residues, two transmembrane helices; next to PsaB and FCPI-8/9/10
T2 sequence (A0A6J4B118 51-139): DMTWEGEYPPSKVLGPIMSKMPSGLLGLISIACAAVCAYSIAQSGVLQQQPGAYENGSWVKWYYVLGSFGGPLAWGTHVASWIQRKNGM

CC1=C(C#C/C(C)=C/C=C/C(C)=C/C=C/C=C(C)/C=C/C=C(C)/C=C/[C@@]23O[C@]2(C)C[C@@H](O)CC3(C)C)C(C)(C)C[C@H](O)C1 [diadinoxanthin]
cryo-EM structure, 2.38 Å ([1]; chain of each in supplement): two Ddx and two Fx were identified in the diatom PSI core

CC(=O)O[C@H]1CC(C)(C)C(=C=C/C(C)=C/C=C/C(C)=C/C=C/C=C(C)/C=C/C=C(\C)C(=O)C[C@@]23O[C@]2(C)C[C@@H](O)CC3(C)C)[C@](C)(O)C1 [fucoxanthin]
cryo-EM structure, 2.38 Å ([1]; one of them on PsaR): two Ddx and two Fx were identified in the diatom PSI core | cryo-EM structure, 2.38 Å [2]: binds one Chl a and one Fx
